Here are results for two compounds from US11787847B2, “Method of identifying malodor modulating compounds” (FIRMENICH SA, priority 2017, dated 2023).

Assay [1] has as its system mouse receptors Olfr1193, Olfr1093, Olfr1097, Olfr166, Olfr169, Olfr738, Olfr742 and human odorant receptor OR4S2. In words: cAMP HTRF dose-response assay, DMTS/DMDS response profiles (Example 5). In kind it is cell-based. The settings on record: increasing concentration of compound; relative to butyric acid control. The method, then: (§1) Functional dose-response experiments were performed to evaluate the level of DMTS activity of the modified cell line expressing individual putative DMTS receptors. Using a cell-based assay, mouse receptor Olfr1193, Olfr1093, Olfr1097, Olrf166, Olfr169, Olfr738 and Olfr742, and human receptor OR4S2 and OR52N5 were tested in an HEK293T cell line wherein the endogenous RTP1 gene has been activated and the odorant receptor chaperone protein was expressed (described in WO2016/201153). The mouse receptor genes were tagged with a Lucy-FLAG®-Rho tag combination and the human receptors were tagged with a Rho-FLAG® tag combination resulting in a tag:receptor fusion protein for the cell based assay. Receptor genes were co-transfected with the canonical olfactory human G-protein alpha subunit Golf gene and were exposed to increasing concentrations of the malodor odorant. Co-expression of the human Golf activates the Gs transduction pathway that leads to an internal cAMP increase upon binding to the appropriate ligand. Odorant-induced activity was detected by measuring the cAMP increase in the cytosol using an Homogeneous Time Resolved Fluorescence (HTRF) based kit (CisBio, cAMP dynamic 2 kit, cat. 62AM4PEJ). […]

Assay [2] concerns cells that do not express the odorant receptors (HEK293T). The assay can be described thus: Mock transfection control experiment (Example 5). In kind it is cell-based. The protocol:
as §1

The next assay addresses T1, mouse receptor Olfr1093 (Mus musculus, UniProt B2RR12).
T1 construct: cAMP HTRF
T1 sequence (B2RR12 1-322): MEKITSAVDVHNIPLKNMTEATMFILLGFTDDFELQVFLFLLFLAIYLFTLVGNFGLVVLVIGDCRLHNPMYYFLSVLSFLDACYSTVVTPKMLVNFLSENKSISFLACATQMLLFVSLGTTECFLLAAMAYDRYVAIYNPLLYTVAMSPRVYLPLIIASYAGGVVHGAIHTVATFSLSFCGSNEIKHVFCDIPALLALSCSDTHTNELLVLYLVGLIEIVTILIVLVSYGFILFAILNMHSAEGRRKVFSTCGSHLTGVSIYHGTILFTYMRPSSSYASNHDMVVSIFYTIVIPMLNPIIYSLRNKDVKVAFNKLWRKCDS
In words: cell-based dose-response, cAMP increase by HTRF, HEK293T cells (endogenous RTP1 activated) co-transfected with human Golf, Lucy-FLAG-Rho tagged receptor. Particulars: FIG. 5, Example 5, SEQ ID NO: 4. The method, then: (§2) Functional dose-response experiments were performed to evaluate the level of DMTS activity of the modified cell line expressing individual putative DMTS receptors. Using a cell-based assay, mouse receptor Olfr1193, Olfr1093, Olfr1097, Olrf166, Olfr169, Olfr738 and Olfr742, and human receptor OR4S2 and OR52N5 were tested in an HEK293T cell line wherein the endogenous RTP1 gene has been activated and the odorant receptor chaperone protein was expressed (described in WO2016/201153). The mouse receptor genes were tagged with a Lucy-FLAG®-Rho tag combination and the human receptors were tagged with a Rho-FLAG® tag combination resulting in a tag:receptor fusion protein for the cell based assay. Receptor genes were co-transfected with the canonical olfactory human G-protein alpha subunit Golf gene and were exposed to increasing concentrations of the malodor odorant. Co-expression of the human Golf activates the Gs transduction pathway that leads to an internal cAMP increase upon binding to the appropriate ligand. Odorant-induced activity was detected by measuring the cAMP increase in the cytosol using an Homogeneous Time Resolved Fluorescence (HTRF) based kit (CisBio, cAMP dynamic 2 kit, cat. 62AM4PEJ). […] The activity levels are reported by the potency of the DMTS induced-response for each receptor as a measure of the EC50 value (the effective concentration at which the receptor responds at its half-maximal activation efficacy level for a given compound).
(§3) Functional dose-response experiments were performed to confirm the DMTS activity on the DMTS receptors identified in Example 2 and to further characterize their response to DMDS. Using the same cell-based assay described in Example 2, mouse receptors Olfr1193, Olfr1093, Olfr1097, Olfr166, Olfr169, Olfr738, Olfr742 and of human odorant receptor OR4S2 were tested with increasing concentration of DMTS, DMDS or butyric acid (control). […] A weak response for OR4S2 and Olfr169 to butyric acid was visible but was too weak to consider butyric acid as a representative ligand for these receptors. The activity levels are reported by the potency of DMTS or DMDS induced-response for each receptor as a measure of the EC50 value, EC50DMTS and EC50DMDS respectively. […] Competitive antagonists at the malodor binding site of these receptors have the potential to reduce the unpleasant perception of both DMTS and DMDS.

In the next assay the target is T2, mouse receptor Olfr1097 (Mus musculus, UniProt Q8VGA2).
T2 construct: cAMP HTRF
T2 sequence (Q8VGA2 1-315): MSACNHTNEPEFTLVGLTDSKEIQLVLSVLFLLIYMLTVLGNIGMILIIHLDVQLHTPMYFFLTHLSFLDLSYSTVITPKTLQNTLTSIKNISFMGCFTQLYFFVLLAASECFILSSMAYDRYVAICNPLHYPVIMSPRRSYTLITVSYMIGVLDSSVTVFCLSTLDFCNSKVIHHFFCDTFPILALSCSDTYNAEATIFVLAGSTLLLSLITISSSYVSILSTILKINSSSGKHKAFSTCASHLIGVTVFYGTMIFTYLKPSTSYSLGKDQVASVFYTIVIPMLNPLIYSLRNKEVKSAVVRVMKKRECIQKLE
The description is as above. The settings on record: FIG. 5, Example 5, SEQ ID NO: 6. The method, then: as §2, §3

Another assay addresses T3, mouse receptor Olfr1193 (Mus musculus, UniProt A2AV13).
T3 construct: cAMP HTRF
T3 sequence (A2AV13 1-318): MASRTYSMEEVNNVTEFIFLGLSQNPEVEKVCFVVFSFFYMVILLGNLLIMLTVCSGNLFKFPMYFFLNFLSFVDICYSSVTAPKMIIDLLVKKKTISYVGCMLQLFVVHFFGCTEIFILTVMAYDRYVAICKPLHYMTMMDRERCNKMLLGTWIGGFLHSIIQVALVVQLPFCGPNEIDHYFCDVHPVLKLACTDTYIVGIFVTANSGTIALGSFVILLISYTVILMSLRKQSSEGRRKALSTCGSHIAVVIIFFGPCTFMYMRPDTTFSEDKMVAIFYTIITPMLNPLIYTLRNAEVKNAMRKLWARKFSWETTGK
Described as above. Particulars: FIG. 5, Example 5, SEQ ID NO: 2. The method, then: as §2, §3

A further assay addresses T4, mouse receptor Olfr166 (Mus musculus, UniProt Q0VEL6).
T4 construct: cAMP HTRF
T4 sequence (Q0VEL6 1-312): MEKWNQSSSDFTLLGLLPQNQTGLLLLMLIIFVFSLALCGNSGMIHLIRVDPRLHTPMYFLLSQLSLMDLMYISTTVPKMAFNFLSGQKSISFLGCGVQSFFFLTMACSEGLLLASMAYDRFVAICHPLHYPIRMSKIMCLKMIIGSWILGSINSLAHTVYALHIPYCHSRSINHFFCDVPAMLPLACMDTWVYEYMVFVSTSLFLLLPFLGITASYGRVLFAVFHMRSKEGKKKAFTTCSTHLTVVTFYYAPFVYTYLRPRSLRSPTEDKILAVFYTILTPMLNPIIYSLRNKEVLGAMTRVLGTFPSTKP
Described as above. The settings on record: FIG. 5, Example 5, SEQ ID NO: 8. The protocol: as §2, §3

The next assay deals with T5, mouse receptor Olfr169 (Mus musculus, UniProt Q7TS53).
T5 construct: cAMP HTRF
T5 sequence (Q7TS53 1-313): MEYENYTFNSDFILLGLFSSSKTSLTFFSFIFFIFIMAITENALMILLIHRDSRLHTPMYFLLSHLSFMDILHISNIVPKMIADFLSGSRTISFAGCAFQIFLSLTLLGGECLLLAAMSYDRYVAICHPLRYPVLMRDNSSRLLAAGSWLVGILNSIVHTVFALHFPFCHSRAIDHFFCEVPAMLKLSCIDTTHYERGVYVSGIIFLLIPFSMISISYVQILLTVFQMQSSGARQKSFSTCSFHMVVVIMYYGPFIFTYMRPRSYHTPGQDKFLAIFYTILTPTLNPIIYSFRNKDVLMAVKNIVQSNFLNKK
The description is as above. The settings on record: FIG. 5, Example 5, SEQ ID NO: 10. The protocol: as §2, §3

The next assay deals with T6, mouse receptor Olfr738 (Mus musculus, UniProt L7N1X7).
T6 construct: cAMP HTRF
T6 sequence (L7N1X7 1-311): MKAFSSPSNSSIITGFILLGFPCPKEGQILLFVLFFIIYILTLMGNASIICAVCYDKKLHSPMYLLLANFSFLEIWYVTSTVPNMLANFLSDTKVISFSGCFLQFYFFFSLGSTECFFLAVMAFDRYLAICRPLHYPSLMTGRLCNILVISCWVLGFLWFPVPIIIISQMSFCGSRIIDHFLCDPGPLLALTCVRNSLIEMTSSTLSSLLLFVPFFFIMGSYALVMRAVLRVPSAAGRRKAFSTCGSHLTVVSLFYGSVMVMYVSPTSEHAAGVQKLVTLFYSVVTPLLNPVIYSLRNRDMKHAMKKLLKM
The description is as above. The settings on record: FIG. 5, Example 5, SEQ ID NO: 12. The protocol:
as §2, §3

The target of another assay is T7, mouse receptor Olfr742 (Mus musculus, UniProt A2RTP5).
T7 construct: cAMP HTRF
T7 sequence (A2RTP5 1-311): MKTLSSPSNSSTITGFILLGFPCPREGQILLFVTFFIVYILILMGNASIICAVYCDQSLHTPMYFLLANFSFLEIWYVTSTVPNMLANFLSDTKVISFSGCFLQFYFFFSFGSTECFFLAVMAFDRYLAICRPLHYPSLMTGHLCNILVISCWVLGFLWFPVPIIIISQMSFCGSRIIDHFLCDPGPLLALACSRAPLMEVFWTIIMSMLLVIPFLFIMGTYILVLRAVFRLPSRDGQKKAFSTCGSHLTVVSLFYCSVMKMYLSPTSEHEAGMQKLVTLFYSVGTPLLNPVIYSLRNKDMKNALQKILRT
Described as above. Particulars: FIG. 5, Example 5, SEQ ID NO: 14. The protocol:
as §2, §3

In assay [3] the test system is mouse receptor Olfr1193, Olfr1093, Olfr1097, Olrf166, Olfr169, Olfr738 and Olfr742, and human receptor OR4S2 and OR52N5. The assay can be described thus: cAMP HTRF dose-response assay in HEK293T cells expressing odorant receptors (Example 2). It is filed as cell-based. The settings on record: increasing concentrations of odorant, receptors co-transfected with human Golf.

In a further assay the test system is Olfr169. In words: cAMP HTRF dose-response assay (Example 5), Olfr169. In kind it is cell-based, mouse. Particulars: increasing concentration. The method, then:
as §1

In the next assay the target is T8, OR4S2 (Homo sapiens, UniProt Q8NH73).
T8 sequence (Q8NH73 1-311): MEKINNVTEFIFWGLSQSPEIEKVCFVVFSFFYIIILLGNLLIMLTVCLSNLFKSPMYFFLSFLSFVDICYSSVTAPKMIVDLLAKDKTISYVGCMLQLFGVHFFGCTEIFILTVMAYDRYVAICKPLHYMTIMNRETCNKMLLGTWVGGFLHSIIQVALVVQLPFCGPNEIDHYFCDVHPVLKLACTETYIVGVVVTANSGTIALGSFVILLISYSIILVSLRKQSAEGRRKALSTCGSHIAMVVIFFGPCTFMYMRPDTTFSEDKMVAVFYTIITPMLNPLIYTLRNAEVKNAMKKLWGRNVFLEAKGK
In words: cAMP HTRF dose-response assay (Example 5), OR4S2. Particulars: increasing concentration. It is filed as cell-based. Also noted: expressed in transfected cells. The method, then:
as §1

`CSSC` [DMDS, dimethyl disulfide]: the “receptor activity (cAMP increase)” value in [1] is “strong dose-dependent increase of the receptor activity”. For the same compound, the “activity upon exposure in mock transfected cells” value in [2] is on record as “did not show activity”. Also, the EC50 on mouse receptor Olfr1093 amounted to 458 µM; at mouse receptor Olfr1097, 87 µM; at mouse receptor Olfr1193 it was 40 µM; on mouse receptor Olfr166, 12 µM; at mouse receptor Olfr169 it was 102 µM; at mouse receptor Olfr738 it was 355 µM. In addition, the concentration giving a half-maximal response (EC50) on mouse receptor Olfr742 was determined as 69 µM.
As to `CCCC(=O)O` [butyric acid], the “receptor activity (cAMP increase in the cytosol)” value in [3] is given as “not”. The “response to butyric acid (cAMP)” value in the assay on Olfr169 and on OR4S2 was “weak response” each time.
